The test system of test [1] is SH-SY5Y. Briefly: Cytotoxicity against human SH-SY5Y cells using best fit nonlinear regression analysis. The class given is functional, cell-based.
Test [2] relates to U-87 MG. Briefly: Cytotoxicity against human U-87 MG cells assessed as TMZ-induced cell death at 4.4 uM cotreated with 352 uM of TMZ measured after 72 hrs by phase contrast microscopy. Conditions: U-87MG ATCC. In kind it is functional, cell-based.
In test [3] the test system is U-251. Briefly: Cytotoxicity against human U-251 cells by sulforhodamine B assay. The class given is functional, cell-based. For orientation: In SRB staining, fixed cells bind dye roughly in proportion to their protein.
The subject of test [4] is U-87 MG. Briefly: Cytotoxicity against human U-87 MG cells by sulforhodamine B assay. In kind it is functional, cell-based, U-87MG ATCC.
The subject of test [5] is SH-SY5Y. Briefly: Cytotoxicity against human SH-SY5Y cells assessed as cell viability using raw interpretation method. The class given is functional, cell-based.
The subject of test [6] is U-87 MG. Briefly: Cytotoxicity against human U-87 MG cells assessed as cell viability using raw interpretation method. In kind it is functional, cell-based, U-87MG ATCC.
Test [7] relates to U-87 MG. Briefly: Cytotoxicity against human U-87 MG cells using best fit nonlinear regression analysis. The class given is functional, cell-based, U-87MG ATCC.
Test [8] has as its system SH-SY5Y. Briefly: Cytotoxicity against human SH-SY5Y cells assessed as cell viability at 5 uM upto 72 hrs by MTT assay. The class given is functional. Conditions: time hrs <=72, read-out: Activity. For orientation: Tetrazolium assays rely on reduction of a dye to a coloured formazan, in cell work by metabolically active cells.
For test [9], the system named is U-87 MG. Briefly: Cytotoxicity against human U-87 MG cells assessed as cell viability at 5 uM upto 72 hrs by MTT assay. Conditions: time hrs <=72, read-out: Activity. The class given is functional, U-87MG ATCC.
Test [10] deals with SH-SY5Y. Briefly: Cytotoxicity against human SH-SY5Y cells assessed as TMZ-induced cell death at 0.27 to 2.15 uM cotreated with 216.2 uM of TMZ incubated upto 72 hrs by MTT assay. In kind it is functional. Conditions: dose 0.27-2.15 µM, time hrs <=72.
Test [11] has as its system SH-SY5Y. Briefly: Cytotoxicity against human SH-SY5Y cells assessed as TMZ-induced cell death at 2.15 uM cotreated with 108.1 uM of TMZ incubated upto 72 hrs by MTT assay. In kind it is functional. The note with it: time hrs <=72.
The test system of test [12] is SH-SY5Y. Briefly: Cytotoxicity against human SH-SY5Y cells assessed as TMZ-induced cell death at 2.15 uM cotreated with 54.05 uM of TMZ incubated upto 72 hrs by MTT assay. In kind it is functional. The note with it: time hrs <=72.
Test [13] has as its system U-87 MG. Briefly: Cytotoxicity against human U-87 MG cells assessed as TMZ-induced cell death at 4.5 uM cotreated with 352 to 1408 uM of TMZ incubated upto 72 hrs by MTT assay. In kind it is functional, cell-based. Conditions: U-87MG ATCC, time hrs <=72.
Test [14] concerns U-87 MG. Briefly: Induction of morphological changes in human U-87 MG cells assessed as appearance of shrunken cell bodies at 4.4 uM measured after 72 hrs by phase contrast microscopy. In kind it is functional, cell-based. Conditions: U-87MG ATCC.
The subject of test [15] is U-87 MG. Briefly: Induction of morphological changes in human U-87 MG cells assessed as membrane blebbing at 4.4 uM measured after 72 hrs by phase contrast microscopy. The class given is functional, cell-based. Conditions: U-87MG ATCC.
The test system of test [16] is U-87 MG. Briefly: Induction of morphological changes in human U-87 MG cells assessed as cell death at 4.4 uM cotreated with 352 uM of TMZ measured after 72 hrs by phase contrast microscopy. The note with it: U-87MG ATCC. In kind it is functional, cell-based.
The test system of test [17] is U-87 MG. Briefly: Induction of morphological changes in human U-87 MG cells assessed as swollen nuclei at 4.4 uM cotreated with 352 uM of TMZ measured after 72 hrs by phase contrast microscopy. In kind it is functional, cell-based. The note with it: U-87MG ATCC.
Test [18] has as its system U-87 MG. Briefly: Induction of morphological changes in human U-87 MG cells assessed as membrane blebbing at 4.4 uM cotreated with 352 uM of TMZ measured after 72 hrs by phase contrast microscopy. The class given is functional, cell-based. The note with it: U-87MG ATCC.
Test [19] relates to U-87 MG. Briefly: Effect on cell morphology in human U-87 MG cells at 4.4 uM cotreated with 352 uM of TMZ measured after 72 hrs by phase contrast microscopy. The class given is functional, cell-based. The note with it: U-87MG ATCC.
For test [20], the system named is SH-SY5Y. Briefly: Cytotoxicity against human SH-SY5Y cells assessed as cell viability at 100 uM incubated upto 72 hrs by MTT assay. The class given is functional. The note with it: time hrs <=72, read-out: Activity.
Test [21] relates to SH-SY5Y. Briefly: Cytotoxicity against human SH-SY5Y cells assessed as cell viability at 2000 uM incubated upto 72 hrs by MTT assay. Conditions: time hrs <=72, read-out: Activity. In kind it is functional.
Test [22] deals with SH-SY5Y. Briefly: Cytotoxicity against human SH-SY5Y cells assessed as cell viability at 500 uM incubated upto 72 hrs by MTT assay. Conditions: time hrs <=72, read-out: Activity. In kind it is functional.
In test [23] the test system is U-87 MG. Briefly: Cytotoxicity against human U-87 MG cells assessed as cell viability at 100 uM incubated upto 72 hrs by MTT assay. The class given is functional, U-87MG ATCC. Conditions: time hrs <=72, read-out: Activity.
Test [24] relates to U-87 MG. Briefly: Cytotoxicity against human U-87 MG cells assessed as cell viability at 2000 uM incubated upto 72 hrs by MTT assay. The class given is functional, U-87MG ATCC. Conditions: time hrs <=72, read-out: Activity.
In test [25] the test system is U-87 MG. Briefly: Cytotoxicity against human U-87 MG cells assessed as cell viability at 10000 uM incubated upto 72 hrs by MTT assay. Conditions: time hrs <=72, read-out: Activity. The class given is functional, U-87MG ATCC.
Test [26] deals with U-87 MG. Briefly: Cytotoxicity against human U-87 MG cells assessed as cell death at 352 uM incubated upto 72 hrs by MTT assay. The class given is functional, U-87MG ATCC. Conditions: time hrs <=72.
Test [27] relates to U-87 MG. Briefly: Induction of morphological changes in human U-87 MG cells assessed as appearance of shrunken cell bodies at 1408 uM measured after 72 hrs by phase contrast microscopy. In kind it is functional, U-87MG ATCC.
Test [28] has as its system U-87 MG. Briefly: Induction of morphological changes in human U-87 MG cells assessed as membrane blebbing at 1408 uM measured after 72 hrs by phase contrast microscopy. The class given is functional, U-87MG ATCC.
The test system of test [29] is U-87 MG. Briefly: Induction of morphological changes in human U-87 MG cells assessed as appearance of undergoing apoptosis at 1408 uM measured after 72 hrs by phase contrast microscopy. In kind it is functional, U-87MG ATCC.

Values joined by “and” are separate entries in the source; they are usually repeats but may differ in a detail not shown here. Equal values may be shown once. Active and inactive are the calls of the source. The rule behind the calls is not given here. Positions of bridges follow the written chain, without caps; N, C: chain ends. Residues, ends and D or L forms follow the SMILES beside them.

With `CC[C@H](C)[C@@H]1NC(=O)[C@H](C)NC(=O)[C@H](CO)NC(=O)[C@H](CO)NC(=O)[C@H]([C@@H](C)CC)NC(=O)[C@@H]2CSSC[C@@H]3NC(=O)[C@H](C(C)C)NC(=O)[C@H](CCCCN)NC(=O)[C@H](CO)NC(=O)[C@H](CCCCN)NC(=O)[C@@H]4CSSC[C@H](NC(=O)[C@H](CO)NC(=O)[C@H](CCC(=O)O)NC(=O)CNC(=O)[C@H](CSSC[C@H](NC(=O)CNC1=O)C(=O)N[C@@H](CO)C(=O)N4)NC(=O)[C@@H]1CCCN1C(=O)[C@H]([C@@H](C)CC)NC(=O)CNC(=O)[C@H](CC(N)=O)NC(=O)[C@H](CCCNC(=N)N)NC(=O)[C@H](Cc1ccc(O)cc1)NC3=O)C(=O)N[C@@H](C(C)C)C(=O)N[C@@H](Cc1c[nH]c3ccccc13)C(=O)N[C@@H]([C@@H](C)CC)C(=O)N1CCC[C@H]1C(=O)N2` (cyclo(AIGCSCKSKVCYRNGIPCGESCVWIPCISS); disulfide 4-18, 6-22, 11-27), the IC50 is 2.15 µM in test [1]; 17.1 µg/mL and 790 nM in test [3]; 0.45 µM in [4]; 3.07 µM in test [5]; 5.66 µM in test [6]; 4.5 µM in test [7]. Also, the outcome in test [2] was inactive. In addition, the viability at 5 µM in test [8] stood at 11.5%; in test [9] it was 54.7%. Also, the Activity in test [10] was 40%; in test [11], 30%; in [12] it was less than 20%. Also, the outcome in [13], in test [14], in [15], in test [16], in test [17] and in test [18] was Active. Also, in test [19], the outcome was Active.

For `CC[C@H](C)[C@@H]1NC(=O)[C@H](C)NC(=O)[C@H](C)NC(=O)[C@H](CO)NC(=O)[C@H]([C@@H](C)CC)NC(=O)[C@@H]2CSSC[C@@H]3NC(=O)[C@H](C(C)C)NC(=O)[C@H](CCCCN)NC(=O)[C@H](CO)NC(=O)[C@H](CCCCN)NC(=O)[C@@H]4CSSC[C@H](NC(=O)[C@H](CO)NC(=O)[C@H](CCC(=O)O)NC(=O)CNC(=O)[C@H](CSSC[C@H](NC(=O)CNC1=O)C(=O)N[C@@H](CO)C(=O)N4)NC(=O)[C@@H]1CCCN1C(=O)[C@H]([C@@H](C)CC)NC(=O)CNC(=O)[C@H](CC(N)=O)NC(=O)[C@H](CCCNC(=N)N)NC(=O)[C@H](Cc1ccc(O)cc1)NC3=O)C(=O)N[C@@H](C(C)C)C(=O)N[C@@H](Cc1c[nH]c3ccccc13)C(=O)N[C@@H]([C@@H](C)CC)C(=O)N1CCC[C@H]1C(=O)N2` [CYCLOVIOLACIN O13] (cyclo(AAIGCSCKSKVCYRNGIPCGESCVWIPCIS); disulfide 5-19, 7-23, 12-28), the IC50 in [1] was determined as 2.15 µM; in test [5] it was 3.07 µM; in test [6], 3.36 µM; in [7], 2.57 µM. For the same molecule, the viability at 5 µM is 12.5% in test [8] and 29.7% in [9].

Regarding `Cn1nnc2c(C(N)=O)ncn2c1=O` [TEMOZOLOMIDE], the IC50 came to 393 µM in [1], 513 µM in test [5], 3190 µM in test [6] and 2900 µM in test [7]. The viability at 100 µM was 96.6% in [20] and 85.2% in [23]. Moreover, the viability at 2000 µM in test [21] worked out at 15.5%; in [24] it was 57.3%. Further, in test [22], the viability at 500 µM was determined as 41.5%. The viability at 10000 µM in test [25] worked out at 32.4%. Also, the Activity in [26] worked out at 10%; in test [27], 40%; in test [28], 40%; in [29], 40%.

Usually IC50 stands for the concentration that gives 50% inhibition.

(Values after ChEMBL document CHEMBL5046264, “Cyclotides Chemosensitize Glioblastoma Cells to Temozolomide” (J Nat Prod, 2022).)
